Measurements: ChEMBL document CHEMBL1125627 (J Med Chem, 1991)

Columns and labels:
[1] = Serum protein binding ability was measured; type: ADME
[2] = physchem
[3] = Percentage ionization was measured; type: ADME

| Structure (SMILES) | Binding [1] | pKa [2] | Ionization [3] |
| --- | --- | --- | --- |
| CC[C@H]1OC(=O)[C@H](C)[C@@H](O[C@H]2C[C@@](C)(OC)[C@@H](O)[C@H](C)O2)[C@H](C)[C@@H](O[C@@H]2O[C@H](C)C[C@H](N(C)C)[C@H]2O)[C@](C)(O)C[C@@H](C)/C(=N\OCOCCOC)[C@H](C)[C@@H](O)[C@]1(C)O [ROXITHROMYCIN] | 95% | 9.2 | > 96% |
| CC[C@H]1OC(=O)[C@H](C)[C@@H](O[C@H]2C[C@@](C)(OC)[C@@H](O)[C@H](C)O2)[C@H](C)[C@@H](O[C@@H]2O[C@H](C)C[C@H](N(C)C)[C@H]2O)[C@](C)(O)C[C@@H](C)C(=O)[C@H](C)[C@@H](O)[C@]1(C)O [ERYTHROMYCIN] | 80% | 8.8 | > 96% |
